# Source: PMC5635026, “Homo-PROTACs: bivalent small-molecule dimerizers of the VHL E3 ubiquitin ligase to induce self-degradation” (Nature Communications, 2017)
# Tests used:
# [1] = test system: Protein-glutamine gamma-glutamyltransferase E (TGM3); assay: TMT MS proteomics in HeLa cells, TGM3 abundance; type: cell-based, Homo sapiens; conditions: 1 µM, 10 h, two replicates
# Protocol: (§1) MS proteomics. Sample preparation. HeLa cells were seeded at 5 × 10^6 on a 10 cm plate 16 h before treatment. […] Cells were incubated at 37 °C and 5% CO2 for 10 h before harvesting. Cells were placed on ice and medium was removed and cells were washed twice with cold PBS. Cells were lysed in 0.5 ml of 100 mM Tris pH 8.0, 4% (w/v) SDS supplemented with protease inhibitor cocktail (Roche). The lysate was pulse sonicated briefly and then centrifuged at 17,000 × g for 15 min at 4 °C. The supernatant fraction of cell extract was snap-frozen in liquid nitrogen and stored in −80 °C freezer. Further sample processing, digestion, desalting, labeling and fractionation were performed as previously described.
# (§2) nLC-MS/MS analysis. The TMT 10plex fractions were first analyzed as previously described. Briefly, the TMT 10plex fractions were analyzed sequentially on a Q Exactive HF Hybrid Quadrupole-Orbitrap Mass Spectrometer (Thermo Scientific) coupled to an UltiMate 3000 RSLCnano UHPLC system (Thermo Scientific) and EasySpray column (75 μm × 50 cm, PepMap RSLC C18 column, 2 μm, 100 Å, Thermo Scientific). The MS2 isolation window was set to 0.4 Da and the resolution set at 120,000. MS2 resolution was set at 60,000. The AGC targets for MS1 and MS2 were set at 3e^6 ions and 1e5 ions, respectively. The normalized collision energy was set at 32%. […] After the first analysis, the TMT labeled fractions were re-analyzed on the Q-Exactive HF using the same instrument settings and a target list generated from a theoretical trypsin digest of VHL. […] After the second analysis, two fractions were further analyzed using a targeted SIM/ddMS2 method on the Q-Exactive HF. […]
# (§3) Peptide and protein identification. All the raw MS data files from the three analyses were merged and searched against the Uniprot-sprot-Trembl-Human-Canonical database by Maxquant software 1.5.3.30 for protein identification and TMT reporter ion quantitation. […] Quantified proteins were filtered if the absolute fold-change difference between the two DMSO replicates was ≥ 1.5.
# [2] = test system: Putative glycerol kinase 5 (GK5); assay: TMT MS proteomics in HeLa cells, GK5 abundance; type: cell-based, Homo sapiens; conditions: 1 µM, 10 h, two replicates
# Protocol: as §1, §2, §3
# VCB = biological target: T1, VCB (Homo sapiens, UniProt P40337); assay: AlphaLISA proximity assay of ternary complex formation; type: binding; conditions: biotinylated VCB 20 nM, His6-VCB 20 nM, compound 0.5–200 nM
# T1 construct: made in house
# T1 sequence (P40337 54-213): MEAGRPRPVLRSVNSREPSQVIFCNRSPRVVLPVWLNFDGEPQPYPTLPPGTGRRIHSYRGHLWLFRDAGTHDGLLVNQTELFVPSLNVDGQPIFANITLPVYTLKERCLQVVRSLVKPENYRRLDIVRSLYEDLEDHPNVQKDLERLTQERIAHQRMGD
# T1 sequence (Q15369 17-112 partner limits assumed): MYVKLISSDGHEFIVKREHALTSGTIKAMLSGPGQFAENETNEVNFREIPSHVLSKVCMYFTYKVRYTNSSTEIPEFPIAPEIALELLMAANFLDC
# T1 sequence (Q15370 1-104 partner limits assumed): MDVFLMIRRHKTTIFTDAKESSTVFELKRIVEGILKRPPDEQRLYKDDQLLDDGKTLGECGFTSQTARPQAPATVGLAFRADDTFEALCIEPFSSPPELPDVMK
# Protocol: Biotinylation of VCB. The VCB complex was mixed with EZ-link NHS-PEG4-biotin (Thermo Scientific) in a 1:1 molar ratio and incubated at room temperature for 1 h. The reaction was quenched using 1 M Tris-HCl, pH 7.5, and unreacted NHS-biotin was removed with a PD-10 MiniTrap desalting column (GE Healthcare) equilibrated with 20 mM HEPES, pH 7.5, 150 mM NaCl and 1 mM DTT.
# AlphaLISA assay. All assays were performed at room temperature in 384-well plates with a final assay volume of 25 µL per well; plates were sealed with transparent film between addition of reagents. All reagents were prepared as 5× stocks diluted in 50 mM HEPES, pH 7.5, 100 mM NaCl, 0.1% (w/v) bovine serum albumin and 0.02% (w/v) 3-[(cholamidopropyl)dimethylammonio]-1-propanesulfonate (CHAPS). Biotinylated VCB (20 nM final) and His6-VCB (20 nM final) were incubated with a range of Homo-PROTAC concentrations (0.5–200 nM; three-in-five serial dilution) for 1 h. Anti-His acceptor beads (PerkinElmer, 10 µg ml^−1 final) were added and plates were incubated for another hour. Streptavidin-coated donor beads (PerkinElmer, 10 µg ml^−1 final) were added and plates were incubated for a final 1 h. Plates were read on a PHERAstar FS (BMG Labtech) using an optic module with an excitation wavelength of 680 nm and emission wavelength of 615 nm. Intensity values were plotted against PROTAC concentration on a log10 scale.
"ternary complex formation, AlphaLISA intensity (VCB)",Compound,"average normalized ratio to DMSO, TGM3 [1]","average normalized ratio to DMSO, GK5 [2]"
negligible levels of complex formation,"Cc1ncsc1-c1ccc(CNC(=O)[C@@H]2C[C@@H](O)CN2C(=O)[C@@H](NC(=O)COCCOCCOCCOCCOCC(=O)N[C@H](C(=O)N2C[C@H](O)C[C@H]2C(=O)NCc2ccc(-c3scnc3C)cc2)C(C)(C)C)C(C)(C)C)cc1 [CM10, N ^1 ,N ^17-bis((S)-1-((2S,4R)-4-hydroxy-2-((4-(4-methylthiazol-5-yl)benzyl)carbamoyl)pyrrolidin-1-yl)-3,3-dimethyl-1-oxobutan-2-yl)-3,6,9,12,15-pentaoxaheptadecanediamide]",0.99,1.22
negligible levels of complex formation,"Cc1ncsc1-c1ccc(CNC(=O)[C@@H]2C[C@@H](O)CN2C(=O)[C@@H](NC(=O)COCCOCCOCCOCC(=O)N[C@H](C(=O)N2C[C@H](O)C[C@H]2C(=O)NCc2ccc(-c3scnc3C)cc2)C(C)(C)C)C(C)(C)C)cc1 [CM09, N ^1 ,N ^14-bis((S)-1-((2S,4R)-4-hydroxy-2-((4-(4-methylthiazol-5-yl)benzyl)carbamoyl)pyrrolidin-1-yl)-3,3-dimethyl-1-oxobutan-2-yl)-3,6,9,12-tetraoxatetradecanediamide]",1.74,1.05
highest intensity signal,"Cc1ncsc1-c1ccc(CNC(=O)[C@@H]2C[C@@H](O)CN2C(=O)[C@@H](NC(=O)COCCOCCOCCOCCOCCOCC(=O)N[C@H](C(=O)N2C[C@H](O)C[C@H]2C(=O)NCc2ccc(-c3scnc3C)cc2)C(C)(C)C)C(C)(C)C)cc1 [CM11, N ^1 ,N ^20-bis((S)-1-((2S,4R)-4-hydroxy-2-((4-(4-methylthiazol-5-yl)benzyl)carbamoyl)pyrrolidin-1-yl)-3,3-dimethyl-1-oxobutan-2-yl)-3,6,9,12,15,18-hexaoxaicosanediamide]",0.72,0.94
